Reference: US20220364065A1, “COMPOSITION FOR REMOVING PLURIPOTENT STEM CELLS AND METHOD OF REMOVING PLURIPOTENT STEM CELLS” (NATIONAL UNIVERSITY CORPORATION HOKKAIDO UNIVERSITY, priority 2018, published 2022)
Peptide text beside a SMILES is read from it. * marks the point of attachment. Cbz = O=C(OCc1ccccc1)*; CH2F = FC*

Assays:
mouse ES cells [1] = assay: Immunostaining of pluripotent stem cell markers (Sox2, Nanog, Oct4), ES cells; type: cell-based; details: ES cells, BRQ 10 μM
Procedure: (§1) The cells were fixed and immunostained as described in Kondo et al., Genes Dev. […] For the culture of ES cells and iPS cells, gelatin-coated ones were used.
(§2) For immunostaining, the cells were first washed once with PBS, then fixed by adding 4% paraformaldehyde and incubating for 10 minutes at room temperature. The cells were replaced with PBS containing 0.3% Triton X100 and incubated for 5 minutes at room temperature, then replaced with PBS containing 0.3% Triton X100 and 10% FCS (blocking solution) and incubated for 30 minutes at room temperature. The solution was replaced with primary antibody solution diluted in blocking solution and incubated for 2 hours at room temperature. After washing three times with PBS, secondary antibody and DAPI solution diluted with blocking solution were added and incubated at room temperature for 2 hours. […] Note that the cell nuclei were visualized by contrast staining with DAPI solution (1 μg/mL, manufactured by Dojindo, product code: D523). In addition, fluorescence images were acquired with an Axiolmager M1 microscope (manufactured by Carl Zeiss).
(§3) LMB is a specific inhibitor of CRM1, also known as Exportin 1.

mouse iPS cells [2] = assay: Immunostaining of pluripotent stem cell markers (Sox2, Nanog, Oct4), iPS cells; type: cell-based; details: iPS cells, BRQ 10 μM
Procedure: as §1, §2, §3

mouse iPS cells [3] = assay: Nucleoside neutralization experiment (MTT), iPS cells; details: 10 μM BRQ, 3 days, added up to 500 μM
Source text: (§4) Pyrimidine synthesis is regulated by the de novo (de novo synthesis) pathway and salvage pathway. DHODH is a key factor in de novo synthesis, catalyzing the fourth chemical reaction in the synthetic pathway. In view of this, the present inventor investigated whether the effect of eliminating pluripotent stem cells by DHODH inhibitors could be eliminated by adding nucleosides such as uridine, which is the starting material of the salvage pathway.
(§5) In addition, UMP, a product of the pyrimidine synthesis pathway, is converted to UDP and UTP. Furthermore, uridine diphosphate-N-acetylglucosamine (UDP-GlcNac) is also biosynthesized using UTP as a substrate. […] Therefore, the present inventor verified whether the cytotoxic activity of DHODH inhibitors on pluripotent stem cells could also be neutralized by the products from these UMPs.

mouse ES cells [4] = assay: Nucleoside neutralization experiment (MTT), ES cells; details: 10 μM BRQ, 3 days, added up to 500 μM
Source text: as §4, §5

For `CCC(=C/[C@H](C)C/C=C/C(C)=C/[C@@H](C)C(=O)[C@@H](C)[C@H](O)[C@@H](C)C/C(C)=C/C(=O)O)/C=C/[C@@H]1OC(=O)C=C[C@@H]1C` [LMB, leptomycin B], the “nuclear export of Nanog and Oct4 in cells treated with BRQ” value (mouse ES cells [1]; 2 days, LMB 0.15 nM) was “completely suppressed” and the “nuclear export of Nanog and Oct4 in cells treated with BRQ” value (mouse iPS cells [2]; 2 days, LMB 0.15 nM) was “completely suppressed”.

For `CC(NC(=O)C(NC(=O)OCc1ccccc1)C(C)C)C(=O)NC(CC(=O)O)C(=O)CF` (stereo not drawn) [Z-VAD] (Cbz-Val-Ala-Asp-CH2F; configuration not given here), the “effect on BRQ-dependent cell death” value (mouse ES cells [1]; ZVAD 100 nM) was “slight delay” and the “effect on BRQ-dependent cell death” value (mouse iPS cells [2]; ZVAD 100 nM) was “slight delay”.

“uridine diphosphate-N-acetylglucosamine [UDP-GlcNac]” was tested, and the “neutralizing activity against the cytotoxic activity of BRQ” value (mouse iPS cells [3]) was “neutralized” and the “neutralizing activity against the cytotoxic activity of BRQ” value (mouse ES cells [4]) was “neutralized”.
